Results as given in PMC10011573, “Development of novel broad-spectrum antimicrobial lipopeptides derived from plantaricin NC8 β” (Scientific Reports, 2023).
Non-standard residues stand in square brackets, D forms with d. Residues, ends and D or L forms follow the SMILES beside them. *: point of attachment. Heptanoyl = CCCCCCC(=O)*; Hexanoyl = CCCCCC(=O)*

Legend:
E. coli (K-12 MG1655) = details: Table 3; K-12 MG1655; broth microdilution, 50:50 PBS/LB-broth, 200 µL, 20 h, 37 °C
Protocol: (§1) S. aureus (ATCC 29213, MSSA, ATCC, Manassas, VA), E. coli (K-12 MG1655) and clinical isolates of S. aureus, E. coli, E. faecium, K. pneumoniae, A. baumannii, P. aeruginosa and E. cloacae obtained from the Department of Laboratory Medicine at Örebro University Hospital were streaked on Luria–Bertani (LB) agar plates and incubated at 37 °C overnight. Single colonies were inoculated into 5 ml of LB broth and incubated on a shaker (400 rpm) at 37 °C overnight. The bacterial concentrations were determined by viable count and were adjusted to correlate with approximately 10^9 CFU/ml.
(§2) The broth microdilution method was used to determine minimal inhibitory concentration (MIC) and minimal bactericidal concentration (MBC), in accordance with the EUCAST standards for the broth microdilution method. Two-fold serial dilutions of the lipopeptides were used, and the final concentrations ranged from 0.19 to 100 µM. In brief, two-fold serial dilutions of the lipopeptides were performed in a 96-well plate in PBS, with a final volume of 100 µl per well, after which 100 µl of LB-broth media containing approximately 5 × 10^5 CFU/ml of bacteria was added to each well. The plate was then incubated for 20 h in 37 °C on a shaker (400 rpm). The effect of lipopeptide-antibiotic combinations was investigated by performing checkerboard assays. The assays were performed in accordance with the MIC and MBC tests conducted above, but with horizontal and longitudinal two-fold serial dilutions of the tested compounds. […] The fractional inhibitory concentration (FIC) and fractional bactericidal concentration (FBC) were calculated by the equation (MIC or MBC of peptide in combination/MIC or MBC of peptide alone) + (MIC or MBC of antibiotic in combination/MIC or MBC of antibiotic alone). Synergy was defined as FIC/FBC ≤ 0.5, additive when 0.5 < FIC/FBC ≤ 1, indifferent when 1 < FIC/FBC < 2 and antagonistic when FIC/FBC ≥ 2. All experiments were repeated at least three times.

[1] = system: S. aureus (ATCC 29213, MSSA); details: ATCC 29213, 20 h
Protocol: as §1, §2

[2] = Carboxyfluorescein release assay, mammalian liposome model; type: biochemical; details: 65:5:30 POPC:POPS:Chol. liposomes, 25 µM lipid, 10 mM PBS pH 7.4, 10^–5–10^2 µM peptide, 60 min, fluorescence, Hill fit, n = 3; read-out: EC50 Mammalial (concentration that triggers 50% CF release)
Protocol: (§3) Liposomes were prepared by thin-film hydration method. Lipids stock solutions (10 mg/ml in chloroform, Avanti Polar Lipids, Inc., Alabaster, United States) of the lipids 1-palmitoyl-2-oleoyl-sn-glycero-3-phosphocholine (POPC), 1-palmitoyl-2-oleoyl-sn-glycero-3-phospho-L-serine (POPS), 1-Hexadecanoyl-2-(9Z-Octadecenoyl)-sn-Glycero-3-Phosphoglycerol (POPG) and Cholesterol (Chol) were employed. Bacterial liposomes were prepared with a 75:25 ratio of POPC:POPG and mammalian liposomes were prepared with a 65:5:30 ratio of POPC:POPS:Chol. Lipid solutions were thoroughly homogenised, and the solvent was evaporated with the use of a dry N2 steam to yield a lipid cake. […] The lipid film was subsequently hydrated with a 5(6)-CF solution (50 mM CF, 10 mM PBS, 90 mM NaCl, pH 7.4). Following a 10 min incubation on orbital shaker (50 min^−1), the solution was vortexed for 60 s on medium speed. A mini extruder (Avanti Polar Lipids, Inc., United States) was employed and 21 extrusions were performed through a 0.1 µm filter membrane (Nuclepore track-etched hydrophilic membrane, Cytiva, Whatman, MA, United States), resulting in monodispersed unilamellar liposomes. Directly before use the liposomes were purified from unencapsulated CF by filtration through a gel filtration column (PD Minitrap G-25 column, Cytiva, United States), against PBS buffer (10 mM, pH 7.4).
(§4) Peptide and lipopeptide activity towards liposome models were evaluated using a carboxyfluorescein (CF) release assay. Liposomes were diluted in PBS (10 mM, pH 7.4) to a final lipid concentration of 25 µM and incubated with peptides (10^–5–10^2 µM) in a 96-well plate (n = 3). CF release was monitored using an Infinite M1000 PRO plate reader every 2.5 min for 1 h. Full (100%) CF release was obtained by addition of 1% Triton X-100 solution followed by 10 min incubation. CF release percentage was evaluated according to the formula 100 * (F − F0)/(FT − F0), where F indicates the instantaneous fluorescence, FT the total fluorescence and F0 the background fluorescence prior to peptide addition. Data were fitted to a Hill-1 curve using MATLAB R2019a (The MathWorks Inc., Natick, Massachusetts, United States) and the half maximum effective concentration (EC50) was extracted.

[3] = Carboxyfluorescein release assay, bacterial liposome model; type: biochemical; details: 75:25 POPC:POPG liposomes, 25 µM lipid, 10 mM PBS pH 7.4, 10^–5–10^2 µM peptide, 60 min, fluorescence, Hill fit, n = 3; read-out: EC50 Bacterial (concentration that triggers 50% CF release)
Protocol: as §3, §4

human erythrocytes = experiment: Hemolytic activity; type: cell-based; details: 15% suspension in PBS, 1 h, 37 °C, absorbance 540 nm, highest tested concentration 100 µM
Protocol: The hemolytic activity of the lipopeptides was investigated by collecting blood from healthy volunteers in heparinized vacutainers. Briefly, the blood was centrifuged at 600 × g for 5 min and the erythrocyte pellet was washed three times in PBS. The cells were then suspended in PBS and added to 96-well plates (15% erythrocyte suspension/well), containing the lipopeptides with two-fold serial dilution. The plates were incubated for 1 h at 37 °C followed by centrifugation for 5 min at 900×g and absorbance measurement of the supernatants at 540 nm. Hemolytic activity (%) was calculated by subtracting the negative control from all values and normalization against the positive control (0.5% Triton X-100), that was set to 100%. All experiments, each in duplicate, were repeated three times.

S. aureus (ATCC 29213) = type: cell-based; details: Table 6; ATCC 29213; checkerboard assay, 50:50 PBS/LB-broth, 200 µL
Protocol: as §2, with “Two-fold serial dilutions of the lipopeptides were used, and the final concentrations ranged from 0.19 to 100 µM.” left out, “Synergy was defined as FIC/FBC ≤ 0.5, additive when 0.5 < FIC/FBC ≤ 1, indifferent when 1 < FIC/FBC < 2 and antagonistic when FIC/FBC ≥ 2.” left out

Row | Compound | E. coli MBC (E. coli (K-12 MG1655)) [µM] | E. coli MIC (E. coli (K-12 MG1655)) [µM] | S. aureus MBC [1] [µM] | S. aureus MIC [1] [µM] | EC50 [2] [µM] | EC50 [3] [µM] | HC, hemolytic concentration at 5% hemolytic activity (human erythrocytes) [µM] | S. aureus MBC, antibiotic alone (S. aureus (ATCC 29213)) [µg/mL] | S. aureus MIC, antibiotic alone (S. aureus (ATCC 29213)) [µg/mL]
1 | CCCCCC(=O)N[C@H](CC(C)C)C(=O)NCC(=O)N[C@H](CC(C)C)C(=O)N[C@H](CCCCN)C(=O)N[C@H](CC(C)C)C(=O)N[C@H](CC(C)C)C(=O)N[C@H](Cc1c[nH]c2ccccc12)C(=O)N[C@H](CO)C(=O)N[C@H](C)C(=O)N[C@H](Cc1ccc(O)cc1)C(=O)N[C@H](CCCCN)C(=O)N[C@H](Cc1c[nH]cn1)C(=O)N[C@H](CCCNC(=N)N)C(=O)N[C@H](CCCCN)C(=O)N[C@@H](C(=O)N[C@H](CC(C)C)C(N)=O)[C@H](C)O [D-6-C6-Leu] (Hexanoyl-[dL]G[dL][dK][dL][dL][dW][dS][dA][dY][dK][dH][dR][dK][dT][dL]-NH2) | 3.1 | 3.1 | 1.5 | 1.5 | 1.22 | 0.13 | 65 |  | 
2 | CCCCCC(=O)N[C@H](CC(C)C)C(=O)NCC(=O)N[C@@H](C(=O)N[C@H](CCCCN)C(=O)N[C@@H](C(=O)N[C@H](CC(C)C)C(=O)N[C@H](Cc1c[nH]c2ccccc12)C(=O)N[C@H](CO)C(=O)N[C@H](C)C(=O)N[C@H](Cc1ccc(O)cc1)C(=O)N[C@H](CCCCN)C(=O)N[C@H](Cc1c[nH]cn1)C(=O)N[C@H](CCCNC(=N)N)C(=O)N[C@H](CCCCN)C(=O)N[C@@H](C(=O)N[C@@H](C(N)=O)[C@H](C)CC)[C@H](C)O)[C@H](C)CC)[C@H](C)CC [D-6-C6] (Hexanoyl-[dL]G[dI][dK][dI][dL][dW][dS][dA][dY][dK][dH][dR][dK][dT][dI]-NH2) | 3.1 | 3.1 | 3.1 | 3.1 | 4.99 | 0.13 | > 100 |  | 
3 | CCCCCCC(=O)N[C@H](CC(C)C)C(=O)NCC(=O)N[C@H](CC(C)C)C(=O)N[C@H](CCCCN)C(=O)N[C@H](CC(C)C)C(=O)N[C@H](CC(C)C)C(=O)N[C@H](Cc1c[nH]c2ccccc12)C(=O)N[C@H](CO)C(=O)N[C@H](C)C(=O)N[C@H](Cc1ccc(O)cc1)C(=O)N[C@H](CCCCN)C(=O)N[C@H](Cc1c[nH]cn1)C(=O)N[C@H](CCCNC(=N)N)C(=O)N[C@H](CCCCN)C(=O)N[C@@H](C(=O)N[C@H](CC(C)C)C(N)=O)[C@H](C)O [D-6-C7-Leu] (Heptanoyl-[dL]G[dL][dK][dL][dL][dW][dS][dA][dY][dK][dH][dR][dK][dT][dL]-NH2) | 3.1 | 3.1 | 1.5 | 1.5 | 1.02 | 0.13 | 35 |  | 
4 | CCCCCCC(=O)N[C@H](CC(C)C)C(=O)NCC(=O)N[C@@H](C(=O)N[C@H](CCCCN)C(=O)N[C@@H](C(=O)N[C@H](CC(C)C)C(=O)N[C@H](Cc1c[nH]c2ccccc12)C(=O)N[C@H](CO)C(=O)N[C@H](C)C(=O)N[C@H](Cc1ccc(O)cc1)C(=O)N[C@H](CCCCN)C(=O)N[C@H](Cc1c[nH]cn1)C(=O)N[C@H](CCCNC(=N)N)C(=O)N[C@H](CCCCN)C(=O)N[C@@H](C(=O)N[C@@H](C(N)=O)[C@H](C)CC)[C@H](C)O)[C@H](C)CC)[C@H](C)CC [D-6-C7] (Heptanoyl-[dL]G[dI][dK][dI][dL][dW][dS][dA][dY][dK][dH][dR][dK][dT][dI]-NH2) | 6.2 | 3.1 | 3.1 | 1.5 | 1.47 | 0.29 | 65 |  | 
5 | CCCCCC(=O)N[C@@H](CC(C)C)C(=O)NCC(=O)N[C@@H](CC(C)C)C(=O)N[C@@H](CCCCN)C(=O)N[C@@H](CC(C)C)C(=O)N[C@@H](CC(C)C)C(=O)N[C@@H](Cc1c[nH]c2ccccc12)C(=O)N[C@@H](CO)C(=O)N[C@@H](C)C(=O)N[C@@H](Cc1ccc(O)cc1)C(=O)N[C@@H](CCCCN)C(=O)N[C@@H](Cc1c[nH]cn1)C(=O)N[C@@H](CCCNC(=N)N)C(=O)N[C@@H](CCCCN)C(=O)N[C@H](C(=O)N[C@@H](CC(C)C)C(N)=O)[C@@H](C)O [L-6-C6-Leu] (Hexanoyl-LGLKLLWSAYKHRKTL-NH2) | 6.2 | 6.2 | 3.1 | 1.5 | 1.21 | 0.13 | 60 |  | 
6 | CN[C@H](CC(C)C)C(=O)N[C@H]1C(=O)N[C@@H](CC(N)=O)C(=O)N[C@H]2C(=O)N[C@H]3C(=O)N[C@H](C(=O)N[C@H](C(=O)O)c4cc(O)cc(O)c4-c4cc3ccc4O)[C@H](O)c3ccc(c(Cl)c3)Oc3cc2cc(c3O[C@@H]2O[C@H](CO)[C@@H](O)[C@H](O)[C@H]2O[C@H]2C[C@](C)(N)[C@H](O)[C@H](C)O2)Oc2ccc(cc2Cl)[C@H]1O [Vancomycin] |  |  |  |  |  |  |  | 0.78 | 0.78
